According to patent US20110294741A1, “USE OF COMPOUNDS IN THE TREATMENT OF TAU-INDUCED CYTOTOXICITIES” (Bioalvo-Servicos, Investigacao e Desenvolvimento em …, priority 2008, published 2011):

Legend:
[1] = Differential quenching, depth of location in the membrane; assay type: physicochemical; details: phenolic ring, differential quenching with Brownian dynamics simulation
From the text: The x-axis indicates the distance to the bilayer center, being the monolayer thickness 20 Å and y-axis represents the values of the probability density function. Traces (4) and (5) relate to the location of the quenching agents used in the study.
Differential quenching experiments were used to estimate the depth of location of the phenolic ring of the peptides, based on a Brownian dynamics simulation (Fernandes M. X., García de la Torre J., Castanho M. A. 2002. Joint determination by Brownian dynamics and fluorescence quenching of the in-depth location profile of biomolecules in membranes. Anal. Biochem. 307: 1-12.) This methodology allows to determine where the molecules are preferably inserted along the lipid bilayer. The peptides with the amide group show a greater depth of insertion, 4 Å—KTP-NH2, from the lipid/water interface. This is in agreement with KTP-NH2 having a higher affinity for lipids, as desired.

CYP3A4 = CYP3A4 (Homo sapiens, UniProt P08684); experiment: CYP inhibition; assay type: in vitro ADME; details: probe substrates midazolan and testosterone
Sequence of CYP3A4 (P08684 whole entry): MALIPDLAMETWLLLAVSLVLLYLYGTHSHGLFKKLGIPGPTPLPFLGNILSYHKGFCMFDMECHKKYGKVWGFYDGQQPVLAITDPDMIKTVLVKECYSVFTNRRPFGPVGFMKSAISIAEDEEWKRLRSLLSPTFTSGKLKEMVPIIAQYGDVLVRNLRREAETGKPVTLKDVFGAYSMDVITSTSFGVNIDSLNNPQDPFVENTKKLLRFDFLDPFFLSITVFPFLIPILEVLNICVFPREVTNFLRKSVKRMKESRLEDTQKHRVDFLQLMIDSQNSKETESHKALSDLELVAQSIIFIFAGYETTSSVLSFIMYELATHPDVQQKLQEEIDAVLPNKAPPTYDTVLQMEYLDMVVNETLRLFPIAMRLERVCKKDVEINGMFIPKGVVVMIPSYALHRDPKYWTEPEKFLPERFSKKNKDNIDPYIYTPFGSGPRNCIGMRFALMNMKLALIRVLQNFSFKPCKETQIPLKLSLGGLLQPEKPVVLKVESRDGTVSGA
From the text: CYP3A4 is one of the most important enzymes involved in the metabolism of xenobiotics in the body, promoting the oxidation of the largest range of substrates of all the CYPs and is present in the largest quantity of all the CYPs in the liver.

rats (Wister, male) [2] = experiment: In vivo toxicology: histological alterations in liver, kidney and spleen; set-up: species or system rat; details: i.p. once a day 3.23 mg-100 g body mass, seven days, hematoxylin/eosin sections
Experimental: The toxicological studies were carried out with rats (Wister, male) injected i.p. once a day with 3.23 mg-100 g body mass during seven days.
For investigation of histological alterations in liver, kidney and spleen hematoxylin/eosin-stained sections of fixed tissue were used. Hematoxylin/eosin-stained sections were examined by an experienced pathologist.

[3] = Plasma serum stability of KTP-NH2 analogues; assay type: in vitro ADME; details: Human Serum, test concentration 400 uM, 1-hour incubation
Experimental: In order to increase the potential of KTP-NH2 as a drug for systemic administration, derivatives with improved plasma stability were generated, and tested, including different isomers of KTP-NH2 and methylated versions of KTP-NH2 isomers: • L-Tyrosyl-D-Arginine-NH2 • D-Tyrosyl-D-Arginine-NH2 • D-Tyrosyl-L-Arginine-NH2 • Methyl-L-Tyrosyl-L-Arginine-NH2 • Methyl-L-Tyrosyl-D-Arginine-NH2
These analogues were tested for plasma serum stability, in comparison with KTP-NH2.

[4] = Metabolic stability in human liver microsomal preparation; assay type: in vitro ADME; details: human liver microsomes, 1-hour incubation
From the text: Many compounds can never become a drug because they are rapidly metabolized in the liver. It is important to confirm that metabolic stability is adequate to the desired distribution of compound throughout the body.

rats (Wister, male) [5] = experiment: Tail-flick test; assay type: in vivo, rat
Experimental: Kyotorphin is an endogenous analgesic agent in the brain. However, Kyotorphin can not be used as an analgesic due to its inability to cross the blood-brain-barrier. […] In addition, KTP-NH2 efficacy after oral administration was also observed.
In vivo behavioural anti-nociception tests were carried out in rats (Wister, male). Unless otherwise stated, compounds were administered by intra-peritoneal (i.p.) injection. For most assays, the Tail Flick and the Hot Plate tests were used.
The tail-flick test (D'Amour F. E., Smith D. L. 1941. A method for determining the loss of pain sensation. J Pharmacol Exp Ther 1941; 72:74-79) is a standard investigative tool for pain and analgesia assessment in rodents. It is based on a spinal reflex response of the tail to radiant heat. Pain sensitivity in rats was measured as they responded to the application of radiant heat to a small area of their tails. […]
A KTP derivative was used for comparative purposes, as control. Both drugs were injected i.p. and p.o. and rats were analysed for the Hot Plate and Tail Flick tests.
Additionaly, the central action of KTP-NH2 was confirmed by experiments of naloxone-reversible analgesia. […] In order to corroborate the evidence that KTP-NH2 was exerting its analgesic effect via a central action, we analyzed the antinociceptive effect of KTP-NH2 after pretreatment with naloxone.

N=C(N)NCCCC(NC(=O)C(N)Cc1ccc(O)cc1)C(N)=O [KTP-NH2, L-Tyr-L-Arg-NH2]
depth of insertion from the lipid/water interface [1]: 4 Å
CYP3A4 inhibition (CYP3A4): not to inhibit
histological alterations in kidney and spleen (rats (Wister, male) [2]): no histological modifications were found
histological alterations in liver (rats (Wister, male) [2]): no signs of hepatic necrosis
Mean Parent Remaining (%) [3]: 14.00%
compound remained after incubation with microsomal preparation [4]: 93%
effect of naloxone pretreatment on analgesia (rats (Wister, male) [5]; naloxone 10 min before KTP-NH2, KTP-NH2 3 mg/100 g, naloxone 0.5 mg/100 g, tail-flick): completely antagonized the analgesia
anti-nociceptive response, time to remove tail after stimulus (Tail Flick) (rats (Wister, male) [5]; rats, i.p. and p.o. administration): clear anti-nociceptive response
